Columns and labels:
T-380 tumors = experiment: Hapten biodistribution, premix protocol with bifunctional antibody ECH037.2; format: in vivo, nude mice; set-up: TOTAL RECOV: unit not given here; details: for % DOSE PER GRAM, KIDNEY / % DOSE PER GRAM, LIVER / % DOSE PER GRAM, TUMOR / FECES / TOTAL RECOV / URINE / % DOSE PER GRAM, BLOOD / TUMOR/BLOOD: premix with 20 µg ECH037.2; for % DOSE PER GRAM, BLOOD: 111In-labeled hapten i.v.; for TUMOR/BLOOD: ratio; for Percent Injected Dose in Feces: premix protocol (Table VI); for amount of hapten in the tumor / injected material excreted in the feces: premix protocol; for injected material excreted in the feces: 48 hrs. post injection
Method: Two protocols were used for examining the biodistribution of the derivatized haptens in the presence of the bifunctional antibody ECH037.2. In a premix protocol, ECH037.2 and the derivatized hapten were combined prior to injection in the animals. In the prelocalization protocol, ECH037.2 was injected into the animals, and the antibody was allowed to prelocalize for 24 hours prior to injection of the radiolabeled hapten.
Biodistribution studies were performed in nude mice carrying subcutaneous implants of the human colon carcinoma cell line T-380 which expresses the carcinoembryonic antigen (CEA) recognized by ECH037.2. Briefly, Balb/C Nu/Nu mice were injected subcutaneously with a minced preparation of T-380 tumor implants and maintained for approximately two weeks, or until the tumor implant had grown to a size of approximately 0.5 grams as described by Hagan, P.L., et al. J. Nuc. Med., 26 1418-1423 (1985). Mice were kept in a sterile environment to prevent complications due to bacterial or viral infections. Biodistributions were performed as described by Halpern, S., et al., Cancer Res. 43, 5347-5355 (1983). Briefly, the radiolabeled haptens were injected intravenously in […], and the pharmacokinetics were evaluated at several time points post-injection. At these times, mice were sacrificed and weighed. Organs were removed, their weight recorded, and each organ was then washed in sterile PBS, pH 7.0, and fixed in formalin solution. Samples of blood, urine and feces also were collected and their weight similarly recorded. The organs, or a portion thereof, were transferred to clean tubes and their radioactive content was determined in a well-type gamma-counter.
Relative radioactive content of each organ was expressed as a percentage of injected dose per organ.
To indium-label the haptens of the invention 10 »l of 0.1 mM ligand was combined with X »l of ¹¹¹InCl₃ (in 50 mM HCl) and (x+10) »l of 0.26 M ammonium citrate, pH 6.0. X is calculated by the following equation: X = (200 »Ci)/(A »Ci/»l) [formula] where A is the specific activity of the ¹¹¹In.
The labeling was done in an acid-washed microfuge tube. After combining all of the components above, the solution was vortexed and allowed to stand at room temperature for 15 minutes.
Incorporation of the ¹¹¹In into the chelating agent was determined by TLC on silica in a methanol/aqueous ammonium acetate solvent system as described by Meares, et al. (Anal. Biochem., 142, 68-75 (1984)). Greater than 95% incorporation of the radioactivity into the chelate was required for the sample to be submitted for a biodistribution assay.
Prior to injection the ¹¹¹In-labeled hapten was diluted into freshly prepared isotonic sodium bicarbonate (1.39% w/v) containing 1 mg/ml normal human serum albumin (Buminate, 25% solution, Travenol Laboratories, Glendale, California) to which the bifunctional antibody had been added. The final composition of the solution was 0.2 mg/ml ECH037.2, 0.5 »M chelate, 0.1 »Ci/»l ¹¹¹In, all in a volume of 2.0 ml. For the biodistribution studies, 100 »l of the solution was injected into the tail vein of each animal.

[1] = tested on: monoclonal antibody CHA255; experiment: Determination of hapten-antibody dissociation rates; format: binding, BALB/c mice; details: 22°C; indium complex of hapten from CHA255 after 100 fold excess of indium-115 loaded hapten
Method: Hapten-antibody dissociation rates were determined using monoclonal antibody CHA255, prepared as described in Example 2A, by measuring the quantity of ¹¹¹In³⁺ chelate released from the antibody hapten complex as a function of time after addition of a 100 fold excess (over antibody binding sites) of indium-115 loaded hapten. Thus, for each hapten, a 700 »l solution was prepared containing: antibody at a concentration of 160 nM; indium loaded hapten, trace labeled with ¹¹¹In (total concentration = 160 nM); normal human serum albumin at a total concentration of 1.5 mg/mL; and isotonic phosphate buffered saline, (10 mM PO₄²⁻, 150 mM NaCl, pH 7.2). Indium-115 loaded hapten was added to a final Concentration of […]. Reactions were stirred by placing the sample containers ir a rack mounted on a vortexer head.
At various times after addition of the excess hapten, […] portions of the reaction solutions were transferred to Centrifree tubes (Amicon Corperation, Danvers, Massachusetts) and centrifuged at 1500xg for eight to ten minutes. The reaction time was taken to be the time between addition of the excess hapten and the time the centrifuge reached the desired velocity. Six timepoints, each in duplicate, were obtained over a range of about two reaction half-lives for each rate constant determination. A 200 »l portion from each centrifuged and uncentrifuged solution was then counted for ¹¹¹In. The relative concentration of free hapten was taken to be the ratio of counts in the centrifuged solution to the uncentrifuged solution at each timepoint. Times were recorded to the nearest tenth of a minute.
Room temperature rate constants were measured without the aid of a constant temperature bath. The ambient temperature remained at 22°±1 C.
Rate constants and standard deviations were obtained from a plot of the logarithm of relative complex concentration vs. time. Data were analyzed using the linear regression module of the RS/1 Program (BBN Software Products Corporation, Cambridge, Massachusetts).
Control samples were included in each experiment to determine: A) that the initial condition of 100% of labeled hapten bound to antibody was met, and B) that in the absence of antibody, 100% of counts were able to penetrate the Centrifree membrane. […]

SMILES	% DOSE PER GRAM, KIDNEY (T-380 tumors; 24 hours) [% DOSE PER GRAM]	% DOSE PER GRAM, LIVER (T-380 tumors; 24 hours) [% DOSE PER GRAM]	% DOSE PER GRAM, TUMOR (T-380 tumors; 24 hours) [% DOSE PER GRAM]	FECES (T-380 tumors; 24 hours)	TOTAL RECOV (T-380 tumors; 24 hours)	URINE (T-380 tumors; 24 hours)	% DOSE PER GRAM, BLOOD (T-380 tumors; 24 hours) [% DOSE PER GRAM]	TUMOR/BLOOD (T-380 tumors; 24 hours)	Percent Injected Dose in Feces (T-380 tumors; 24 hrs.) [Percent Injected Dose]	% DOSE PER GRAM, KIDNEY (T-380 tumors; 48 hours) [% DOSE PER GRAM]	% DOSE PER GRAM, LIVER (T-380 tumors; 48 hours) [% DOSE PER GRAM]	% DOSE PER GRAM, TUMOR (T-380 tumors; 48 hours) [% DOSE PER GRAM]	FECES (T-380 tumors; 48 hours)	TOTAL RECOV (T-380 tumors; 48 hours)	URINE (T-380 tumors; 48 hours)	% DOSE PER GRAM, BLOOD (T-380 tumors; 48 hours) [% DOSE PER GRAM]	TUMOR/BLOOD (T-380 tumors; 48 hours)	Percent Injected Dose in Feces (T-380 tumors; 48 hrs.) [Percent Injected Dose]	t1/2, Dissociation Half-Lives [1] [h]	amount of hapten in the tumor (T-380 tumors; 24 hrs.)	also measured
CC(=O)NC(CCCCNC(=S)Nc1ccc(CC(CN(CC(=O)O)CC(=O)O)N(CC(=O)O)CC(=O)O)cc1)C(N)=O (stereo not drawn) [BALTUBE]	3.6	4.0	13.0	6.8% of total injected dose	52.0	16.3% of total injected dose	11.0	1.18	8.5	1.9	2.2	12.9	13.8% of total injected dose	57.8	26.5% of total injected dose	5.2	2.48	13.8	1.52	–	–
O=C(O)CCCNC(=S)Nc1ccc(CC(CN(CC(=O)O)CC(=O)O)N(CC(=O)O)CC(=O)O)cc1 (stereo not drawn) [BATUBE]	2.5	3.3	11.5	6.9% of total injected dose	50.8	20.0% of total injected dose	11.8	0.97	6.9	1.5	2.0	12.1	21.1% of total injected dose	68.3	30.4% of total injected dose	7.9	1.53	21.1	1.24	–	–
O=C(O)CN(CC(=O)O)CC(Cc1ccc(NC(=S)NCc2ccccc2)cc1)N(CC(=O)O)CC(=O)O (stereo not drawn) [BETUBE]	2.5	2.7	8.0	17.4% of total injected dose	44.6	8.4% of total injected dose	9.0	0.89	17.4	1.5	1.9	7.5	29.0% of total injected dose	54.2	12.0% of total injected dose	5.5	1.36	29.0	1.57	–	–
CCCCNC(=S)Nc1ccc(CC(CN(CC(=O)O)CC(=O)O)N(CC(=O)O)CC(=O)O)cc1 (stereo not drawn) [BUTUBE]	1.7	3.4	5.3	16.8% of total injected dose	63.8	22.0% of total injected dose	9.0	0.59	16.8	1.2	3.8	5.7	26.5% of total injected dose	69.3	27.0% of total injected dose	5.8	0.98	26.5	1.51	5.3 percent injected dose/gram	injected material excreted in the feces (T-380 tumors): 26.5% of the injected material; amount of hapten in the tumor (T-380 tumors; 48 hrs.): 5.7 percent injected dose/gram
CCNC(=S)Nc1ccc(CC(CN(CC(=O)O)CC(=O)O)N(CC(=O)O)CC(=O)O)cc1 (stereo not drawn) [ETUBE]	2.4	3.5	8.0	5.9% of total injected dose	52.2	25.8% of total injected dose	10.4	0.77	6.7	1.2	2.4	10.4	15.2% of total injected dose	66.6	36.0% of total injected dose	5.9	1.76	15.2	1.21	8.0 percent injected dose/gram	injected material excreted in the feces (T-380 tumors): 15.2% of the injected material; amount of hapten in the tumor (T-380 tumors; 48 hrs.): 10.4 percent injected dose/gram
O=C(O)CCCC(=O)NCCNC(=S)Nc1ccc(CC(CN(CC(=O)O)CC(=O)O)N(CC(=O)O)CC(=O)O)cc1 (stereo not drawn) [GNUBE]	2.7	3.4	9.0	10.6% of total injected dose	52.0	14.2% of total injected dose	13.0	0.70	10.6	1.5	2.4	12.0	17.8% of total injected dose	63.1	26.9% of total injected dose	8.0	1.49	17.8	1.65	–	–

Reference: patent EP0327365B1, “Improvements in or relating to modified haptens useful as imaging and therapeutic agents” (HYBRITECH INCORPORATED, priority 1988, dated 1989)
